Laboratory results: patent US20230278972A1, “SUBSTITUTED HALOALKYL SULFONANILIDE HERBICIDES” (FMC Corporation, priority 2020, published 2023)

Experiments:
Assay type in all cases: in vivo
[1] = system: barnyardgrass (Echinochloa crus-galli); experiment: Test A preemergence, barnyardgrass; details: Preemergence; for Plant response rating, Barnyardgrass: 0 to 100 scale (0 no effect, 100 complete control)
In short: (§1)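 Formulated with a surfactant in a non-phytotoxic solvent, compounds are applied to loam–sand pots, either to bare soil immediately after seeding (preemergence) or to seedlings of 2 to 10 cm bearing one to two leaves (postemergence).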

kochia (Bassia scoparia) [2] = experiment: Test A preemergence, kochia; details: Preemergence; for Plant response rating, Kochia: 0 to 100 scale (0 no effect, 100 complete control); for Kochia plant response rating: 125 g ai/ha, visual injury on 0 to 100 scale (0 no effect, 100 complete control), approximately 10 days
In short: as §1

[3] = system: Ryegrass, Italian (Italian ryegrass, Lolium multiflorum); experiment: Test A preemergence, Ryegrass, Italian; details: Preemergence; for Plant response rating, Ryegrass, Italian: 0 to 100 scale (0 no effect, 100 complete control); for Ryegrass, Italian plant response rating: 125 g ai/ha, visual injury on 0 to 100 scale (0 no effect, 100 complete control), approximately 10 days
In short: as §1

[4] = system: Foxtail, Giant (giant foxtail, Setaria faberi); experiment: Test A preemergence, Foxtail, Giant; details: Preemergence; for Plant response rating, Foxtail, Giant: 0 to 100 scale (0 no effect, 100 complete control); for Foxtail, Giant plant response rating: 125 g ai/ha, visual injury on 0 to 100 scale (0 no effect, 100 complete control), approximately 10 days
In short: as §1

[5] = system: pigweed (Amaranthus retroflexus); experiment: Test A preemergence, pigweed; details: for Plant response rating, Pigweed: 0 to 100 scale (0 no effect, 100 complete control); for Pigweed plant response rating: 125 g ai/ha, visual injury on 0 to 100 scale (0 no effect, 100 complete control), approximately 10 days
Source text: Seeds of plant species selected from barnyardgrass (Echinochloa crus-galli), kochia (Bassia scoparia), ragweed (common ragweed, Ambrosia artemisiifolia), Ryegrass, Italian (Italian ryegrass, Lolium multiflorum), Foxtail, Giant (giant foxtail, Setaria faberi), and pigweed (Amaranthus retroflexus) were planted into a blend of loam soil and sand and treated preemergence with a directed soil spray using test chemicals formulated in a non-phytotoxic solvent mixture which included a surfactant. At the same time, plants selected from these weed species and also wheat (Triticum aestivum), corn (Zea mays), blackgrass (Alopecurus myosuroides), and galium (catchweed bedstraw, Galium aparine) were planted in pots containing the same blend of loam soil and sand and treated with postemergence applications of test chemicals formulated in the same manner. Plants ranged in height from 2 to 10 cm and were in the one- to two-leaf stage for the postemergence treatment. […] A dash (-) response means no test result.

[6] = system: barnyardgrass (Echinochloa crus-galli); experiment: Test A postemergence, barnyardgrass; details: Postemergence, 0 to 100 scale (0 no effect, 100 complete control)
In short: (§2)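 Postemergence ratings come from foliar sprays onto one- to two-leaf plants of 2 to 10 cm grown in loam/sand; preemergence ratings come from a directed spray onto the soil of newly seeded pots. Formulation was a surfactant-containing non-phytotoxic solvent blend.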

kochia (Bassia scoparia) [7] = experiment: Test A postemergence, kochia; details: Postemergence, 0 to 100 scale (0 no effect, 100 complete control)
In short: as §1

[8] = system: ragweed (common ragweed, Ambrosia artemisiifolia); experiment: Test A postemergence, ragweed; details: Postemergence, 0 to 100 scale (0 no effect, 100 complete control)
In short: as §1

[9] = system: Ryegrass, Italian (Italian ryegrass, Lolium multiflorum); experiment: Test A postemergence, Ryegrass, Italian; details: Postemergence, 0 to 100 scale (0 no effect, 100 complete control)
In short: as §1

[10] = system: Foxtail, Giant (giant foxtail, Setaria faberi); experiment: Test A postemergence, Foxtail, Giant; details: Postemergence, 0 to 100 scale (0 no effect, 100 complete control)
In short: as §1

[11] = system: pigweed (Amaranthus retroflexus); experiment: Test A postemergence, pigweed; details: Postemergence, 0 to 100 scale (0 no effect, 100 complete control)
In short: as §1

[12] = system: wheat (Triticum aestivum); experiment: Test A postemergence, wheat; details: Postemergence, 0 to 100 scale (0 no effect, 100 complete control)
In short: as §2

corn (Zea mays) = experiment: Test A postemergence, corn; details: Postemergence, 0 to 100 scale (0 no effect, 100 complete control)
In short: as §1

[13] = system: blackgrass (Alopecurus myosuroides); experiment: Test A postemergence, blackgrass; details: Postemergence, 0 to 100 scale (0 no effect, 100 complete control)
In short: as §1

[14] = system: galium (catchweed bedstraw, Galium aparine); experiment: Test A postemergence, galium; details: Postemergence, 0 to 100 scale (0 no effect, 100 complete control)
In short: as §2

[15] = 1000 g ai/ha, visual injury, approx. 10 days
[16] = 125 g ai/ha, visual injury approx. 10 days
[17] = 500 g ai/ha, visual injury, approx. 10 days

Cc1cc(C)c(N(S(=O)(=O)C(F)(F)F)S(=O)(=O)C(F)(F)F)cc1C(=O)N1CCSCC1 [Compound 5]
Plant response rating, Barnyardgrass ([1]; 1000 g ai/ha): 100 | Plant response rating, Kochia (kochia (Bassia scoparia) [2]; 1000 g ai/ha): 90 | Plant response rating, Ryegrass, Italian ([3]; 1000 g ai/ha): 100 | Plant response rating, Foxtail, Giant ([4]; 1000 g ai/ha): 100 | Plant response rating, Pigweed ([5]; 1000 g ai/ha): 100 | Plant response rating, Barnyardgrass [6, 15]: 80 | Plant response rating, Kochia (kochia (Bassia scoparia) [7]; [15]): 80 | Plant response rating, Ragweed [8, 15]: 80 | Plant response rating, Ryegrass, Italian [9, 15]: 30 | Plant response rating, Foxtail, Giant [10, 15]: 90 | Plant response rating, Pigweed [11, 15]: 80 | Plant response rating, Wheat [12, 15]: 60 | Plant response rating, Corn (corn (Zea mays); [15]): 10 | Plant response rating, Blackgrass [13, 15]: 0 | Plant response rating, Galium [14, 15]: 90

Cc1cc(C)c(C(=O)N2CCSCC2)cc1NS(=O)(=O)C(F)(F)F [Compound 12]
Plant response rating, Barnyardgrass ([1]; 1000 g ai/ha): 100 | Plant response rating, Kochia (kochia (Bassia scoparia) [2]; 1000 g ai/ha): 90 | Plant response rating, Ryegrass, Italian ([3]; 1000 g ai/ha): 100 | Plant response rating, Foxtail, Giant ([4]; 1000 g ai/ha): 100 | Plant response rating, Pigweed ([5]; 1000 g ai/ha): 100 | Plant response rating, Barnyardgrass [6, 15]: 80 | Plant response rating, Kochia (kochia (Bassia scoparia) [7]; [15]): 70 | Plant response rating, Ragweed [8, 15]: 60 | Plant response rating, Ryegrass, Italian [9, 15]: 90 | Plant response rating, Foxtail, Giant [10, 15]: 90 | Plant response rating, Pigweed [11, 15]: 80 | Plant response rating, Wheat [12, 15]: 60 | Plant response rating, Corn (corn (Zea mays); [15]): 20 | Plant response rating, Blackgrass [13, 15]: 30 | Plant response rating, Galium [14, 15]: 90

Cc1cc(C2CC2)c(NS(=O)(=O)C(F)(F)F)cc1C(=O)N1CCOCC1 [Compound 13]
Barnyardgrass plant response rating ([1]; 125 g ai/ha, visual injury on 0 to 100 scale (0 no effect, 100 complete control), approximately 10 days): 60 | Plant response rating, Barnyardgrass ([1]; 500 g ai/ha): 100 | Kochia plant response rating (kochia (Bassia scoparia) [2]): 20 | Plant response rating, Kochia (kochia (Bassia scoparia) [2]; 500 g ai/ha): 50 | Ryegrass, Italian plant response rating [3]: 20 | Plant response rating, Ryegrass, Italian ([3]; 500 g ai/ha): 30 | Foxtail, Giant plant response rating [4]: 0 | Plant response rating, Foxtail, Giant ([4]; 500 g ai/ha): 10 | Pigweed plant response rating [5]: 20 | Plant response rating, Pigweed ([5]; 500 g ai/ha): 60 | Plant response rating, Barnyardgrass [6, 16]: 0 | Plant response rating, Barnyardgrass [6, 17]: 40 | Plant response rating, Kochia (kochia (Bassia scoparia) [7]; [16]): 0 | Plant response rating, Kochia (kochia (Bassia scoparia) [7]; [17]): 10 | Plant response rating, Ragweed [8, 16]: 10 | Plant response rating, Ragweed [8, 17]: 30 | Plant response rating, Ryegrass, Italian [9, 16]: 0 | Plant response rating, Ryegrass, Italian [9, 17]: 0 | Plant response rating, Foxtail, Giant [10, 16]: 0 | Plant response rating, Foxtail, Giant [10, 17]: 10 | Plant response rating, Pigweed [11, 16]: 0 | Plant response rating, Pigweed [11, 17]: 20 | Plant response rating, Wheat [12, 16]: 0 | Plant response rating, Wheat [12, 17]: 0 | Plant response rating, Corn (corn (Zea mays); [16]): 0 | Plant response rating, Corn (corn (Zea mays); [17]): 0 | Plant response rating, Blackgrass [13, 16]: 0 | Plant response rating, Blackgrass [13, 17]: 0 | Plant response rating, Galium [14, 16]: 20 | Plant response rating, Galium [14, 17]: 30

Cc1cc(Br)c(NS(=O)(=O)C(F)(F)F)cc1C(=O)N1CCOCC1 [Compound 14]
Plant response rating, Barnyardgrass ([1]; 500 g ai/ha): 90 | Kochia plant response rating (kochia (Bassia scoparia) [2]): 70 | Plant response rating, Kochia (kochia (Bassia scoparia) [2]; 500 g ai/ha): 90 | Ryegrass, Italian plant response rating [3]: 60 | Plant response rating, Ryegrass, Italian ([3]; 500 g ai/ha): 100 | Foxtail, Giant plant response rating [4]: 70 | Plant response rating, Foxtail, Giant ([4]; 500 g ai/ha): 80 | Pigweed plant response rating [5]: 80 | Plant response rating, Pigweed ([5]; 500 g ai/ha): 90 | Plant response rating, Barnyardgrass [6, 16]: 40 | Plant response rating, Barnyardgrass [6, 17]: 80 | Plant response rating, Kochia (kochia (Bassia scoparia) [7]; [16]): 40 | Plant response rating, Kochia (kochia (Bassia scoparia) [7]; [17]): 70 | Plant response rating, Ragweed [8, 16]: 60 | Plant response rating, Ragweed [8, 17]: 70 | Plant response rating, Ryegrass, Italian [9, 16]: 0 | Plant response rating, Ryegrass, Italian [9, 17]: 30 | Plant response rating, Foxtail, Giant [10, 16]: 40 | Plant response rating, Foxtail, Giant [10, 17]: 70 | Plant response rating, Pigweed [11, 16]: 60 | Plant response rating, Pigweed [11, 17]: 90 | Plant response rating, Wheat [12, 16]: 30 | Plant response rating, Wheat [12, 17]: 70 | Plant response rating, Corn (corn (Zea mays); [16]): 0 | Plant response rating, Corn (corn (Zea mays); [17]): 20 | Plant response rating, Blackgrass [13, 16]: 10 | Plant response rating, Blackgrass [13, 17]: 40 | Plant response rating, Galium [14, 16]: 70 | Plant response rating, Galium [14, 17]: 80
